Measured values reported in patent US9994515B2, “Aryl naphthyl methanone oxime(s) and process for preparation thereof” (Council of Scientific & Industrial Research, priority 2013, dated 2018).
Structures can show the parent of a compound that is named as a salt.

What was measured:
NIH3T3 = experiment: MTT cytotoxicity assay in NIH3T3 fibroblasts; assay type: cell-based, mouse; settings: Table 1, MTT assay after 48 h treatment
Experimental: To consider a molecule as a candidate compound in cancer drug therapy, the test compound must have specific cytotoxicity towards the cancer cells without affecting normal cell growth. Therefore, all active compounds were assessed for toxicity in non-cancer cell-lines: mouse fibroblast cell line (NIH3T3) and monkey kidney epithelial cells (Vero). […] Therefore, based on safety index ([…]), 5d [Centans; based on IUPAC name prefixed with Central Drug Research Institute's signature (Cent)] was selected as a lead compound.

HL60 = experiment: MTT cytotoxicity assay in HL-60 cells; assay type: cell-based; settings: Table 1, MTT assay after 48 h treatment
K562 = experiment: MTT cytotoxicity assay in K562 cells; assay type: cell-based; settings: Table 1, MTT assay after 48 h treatment

Compound | melting point [°C] | IC50 (NIH3T3; Mus musculus, NIH3T3, 48 h) [µM] | IC50 (HL60; Homo sapiens, HL-60, 48 h) [µM] | IC50 (K562; Homo sapiens, K562, 48 h) [µM] | further results
COc1ccc(/C(=N/OCCN2CCCC2)c2cccc3ccccc23)cc1 (as salt: oxalate) [Compound 6b, (4-methoxyphenyl)(naphthalen-1-yl)methanone O-2-(pyrrolidin-1-yl)ethyl oxime oxalate] | 158 | – | – | – | –
CCN(CC)CCO/N=C(/c1ccc(SC)cc1)c1cccc2ccccc12 [Compound 5l, (4-(methylthio)phenyl)(naphthalen-1-yl)methanone O-2-(diethylamino)ethyl oxime] | – | – | – | – | IC50 (NIH3T3): > 50 µM; IC50 (HL60): > 50 µM; IC50 (K562): > 50 µM
COc1ccc(/C(=N/OCCN(C(C)C)C(C)C)c2cccc3ccccc23)cc1 (as salt: oxalate) [Compound 6e, (4-methoxyphenyl)(naphthalen-1-yl)methanone O-2-(diisopropylamino)ethyl oxime oxalate] | 130 | – | – | – | –
CCN(CC)CCO/N=C(/c1ccc(SC)cc1)c1cccc2ccccc12 [Compound 5k, (4-(methylthio)phenyl)(naphthalen-1-yl)methanone O-2-(diethylamino)ethyl oxime tartrate] | – | – | – | – | IC50 (NIH3T3; tartrate): > 50 µM; IC50 (HL60; tartrate): > 50 µM; IC50 (K562; tartrate): > 50 µM
COc1ccc(/C(=N/OCCN2CCCCCC2)c2cccc3ccccc23)cc1 [Compound 6g, (4-methoxyphenyl)(naphthalen-1-yl)methanone O-2-(azepan-1-yl)ethyl oxime oxalate] | – | 16 | > 50 | 6.66 | –
CCN(CCCCO/N=C(/c1ccc(SC)cc1)c1cccc2ccccc12)Cc1ccccc1 [Compound 8d, (4-(methylthio)phenyl)(naphthalen-1-yl) methanone O-4-(benzyl(ethyl)amino)butyl oxime] | – | > 50 | > 50 | 16.3 | –
COc1ccc(/C(=N/OCCN(C)C)c2cccc3ccccc23)cc1 (as salt: oxalate) [Compound 6c, (4-methoxyphenyl)(naphthalen-1-yl)methanone O-2-(dimethylamino)ethyl oxime oxalate] | 141 | – | – | – | –
CSc1ccc(/C(=N/OCCCN2CCC(C)CC2)c2cccc3ccccc23)cc1 (as salt: oxalate) [Compound 7c, (4-(methylthio)phenyl)(naphthalen-1-yl)methanone O-3-(4-methylpiperidin-1-yl)propyl oxime oxalate] | 145 | – | – | – | –
CSc1ccc(/C(=N/OCCN(C)C)c2cccc3ccccc23)cc1 (as salt: oxalate) [Compound 5c, (4-(methylthio)phenyl)(naphthalen-1-yl)methanone O-2-(dimethylamino)ethyl oxime oxalate] | 105 | – | – | – | –
CSc1ccc(/C(=N/OCCCCNCCc2ccccc2)c2cccc3ccccc23)cc1 [Compound 8c, (4-(methylthio)phenyl)(naphthalen-1-yl)methanone O-4-(phenethylamino)butyl oxime] | – | > 50 | > 50 | > 30 | –
CCCCN(C)CCCO/N=C(/c1ccc(SC)cc1)c1cccc2ccccc12 [Compound 7d, (4-(methylthio)phenyl)(naphthalen-1-yl)methanone O-3-(butyl(methyl)amino)propyl oxime] | – | > 50 | 13 | > 50 | –
COc1ccc(/C(=N/OC(C)CN(C)C)c2cccc3ccccc23)cc1 (centres unmarked) (as salt: oxalate) [Compound 6f, (4-methoxyphenyl)(naphthalen-1-yl)methanone O-1-(dimethylamino)propan-2-yl oxime oxalate] | 105 | – | – | – | –
CSc1ccc(/C(=N/OCCN2CCCCCC2)c2cccc3ccccc23)cc1 (as salt: oxalate) [Compound 5h, (4-(methylthio)phenyl)(naphthalen-1-yl)methanone O-2-(azepan-1-yl)ethyl oxime oxalate] | 145 | – | – | – | –
CSc1ccc(/C(=N/OCCCN2CCCCC2)c2cccc3ccccc23)cc1 (as salt: oxalate) [Compound 7a, (4-(methylthio)phenyl)(naphthalen-1-yl)methanone O-3-(piperidin-1-yl)propyl oxime oxalate] | 137 | – | – | – | –
COc1ccc(/C(=N/OCCN2CCOCC2)c2cccc3ccccc23)cc1 [Compound 6h, (4-methoxyphenyl)(naphthalen-1-yl)methanone O-2-morpholinoethyl oxime] | – | 26 | > 50 | 19 | –
CSc1ccc(/C(=N/OCCN2CCCCCC2)c2cccc3ccccc23)cc1 [Compound 5h, (4-(methylthio)phenyl)(naphthalen-1-yl)methanone O-2-(azepan-1-yl)ethyl oxime oxalate] | – | > 50 | > 50 | > 50 | –
COc1ccc(/C(=N/OCCCN(C)C)c2cccc3ccccc23)cc1 (as salt: oxalate) [Compound 6i, (4-methoxyphenyl)(naphthalen-1-yl)methanone O-3-(dimethylamino)propyl oxime oxalate] | 155 | – | – | – | –
CCOC(=O)CO/N=C(/c1ccc(SC)cc1)c1cccc2ccccc12 [Compound 5p, Ethyl 2-((4-(methylthio)phenyl) (naphthalen-1-yl)methyleneaminooxy) acetate] | – | > 50 | 15 | > 50 | –
CSc1ccc(/C(=N/OCCCN(C)C)c2cccc3ccccc23)cc1 (as salt: oxalate) [Compound 5m, (4-(methylthio)phenyl)(naphthalen-1-yl)methanone O-3-(dimethylamino)propyl oxime oxalate] | 110 | – | – | – | –
CSc1ccc(/C(=N/OCCN2CCCCC2)c2cccc3ccccc23)cc1 (as salt: oxalate) [Compound 5a, (4-(methylthio)phenyl)(naphthalen-1-yl)methanone O-2-(piperidin-1-yl)ethyl oxime oxalate] | 155 | – | – | – | –
CCN(CC)C(=O)CO/N=C(/c1ccc(SC)cc1)c1cccc2ccccc12 [Compound 5q, N,N-diethyl-2-((4-(methylthio)phenyl) (naphthalen-1-yl)methyleneaminooxy)acetamide] | – | > 50 | > 50 | > 50 | –
CCN(CC)CCO/N=C(/c1ccc(SC)cc1)c1cccc2ccccc12 [Compound 5i, (4-(methylthio)phenyl)(naphthalen-1-yl)methanone O-2-(diethylamino)ethyl oxime citrate] | – | – | – | – | IC50 (NIH3T3; citrate): 40 µM; IC50 (HL60; citrate): > 50 µM; IC50 (K562; citrate): > 30 µM
COc1ccc(/C(=N/OC(C)CN(C)C)c2cccc3ccccc23)cc1 (centres unmarked) [Compound 6f, (4-methoxyphenyl)(naphthalen-1-yl)methanone O-1-(dimethylamino)propan-2-yl oxime oxalate] | – | > 50 | > 50 | > 50 | –
CSc1ccc(/C(=N/OC(C)CN(C)C)c2cccc3ccccc23)cc1 (centres unmarked) [Compound 5g, (4-(methylthio)phenyl)(naphthalen-1-yl)methanone O-1-(dimethylamino)propan-2-yl oxime oxalate] | – | > 50 | > 50 | > 50 | –
CSc1ccc(/C(=N/OCCN(C(C)C)C(C)C)c2cccc3ccccc23)cc1 [Compound 5e, (4-(methylthio)phenyl)(naphthalen-1-yl)methanone O-2-(diisopropylamino)ethyl oxime] | – | 16 | 14 | 7 | –
